Reference: patent US7390836B2, “Small molecules used to increase cell death” (priority 1999, dated 2008)

How the values were obtained:
[1] = biological target: T1, Bad-GFP with Bcl-2 or Bcl-xL in BSC-1 cells (Homo sapiens, UniProt Q07817); assay: Bad-GFP localization in intact cells; type: cell-based; details: for order of activities, Bad-GFP localization: rank order; for mitochondrial targeting and heterodimerization of Bad-GFP: BH3I-1 100 μM, BH3I-2 50 μM, 6 hr, 100 μM zVAD
T1 construct: expressed in transfected cells; host or cells: BSC-1 cells
Description: Bad is a pro-apoptotic member of the Bcl-2 family, whose apoptosis-promoting activity and mitochondrial targeting depends on heterodimerization with anti-apoptotic Bcl-2 family members (Zha et al., Cell 87, 619-28, 1996). To examine the effects of BH3Is on Bad localization, BSC-1 cells were transfected with 5 μg of Bad-GFP expression vector alone (FIG. 8D, panels 1 […]) or were co-transfected with 5 μg of Bad-GFP and 5 μg of Bcl-xL-T7 (FIG. 8D, panels 2-5). Twenty four hours after transfection, cells were treated with BH3I-1 (100 μM; FIG. 8D, panel 4) or BH3I-2 (50 μM; FIG. 8D, panel 5) for 6 hr. In order to determine mitochondrial localization, cells were pre-stained with MitoTracker Red CMXRos for 30 min prior to fixation (FIG. 8D, panel 2). All cells in this study were pretreated with 100 μM zVAD to decrease the detrimental effects of overexpression of proapoptotic Bcl-2 proteins on cell viability.
BH3Is disrupted the mitochondrial association of Bad, but not Bcl-xL, after in vitro treatment of the mitochondria isolated from 293 cells co-transfected with Bad and Bcl-xL (FIG. 8C). The relative activities of the BH3Is in this assay (BH3I-2>BH3I-1>BH3I-1″) were consistent with the previous results. […] Again, the order of the activities in these assays was BH3I-2>BH3I-1>BH3I-1″.

[2] = tested on: BH3/Bcl-xL binding; assay: SELDI binding assay, unlabeled Bak BH3 peptide on immobilized Bcl-xL-His6; details: for relative activity in SELDI assay: comparison between compounds
Source text: To test the possibility that BH3Is target the OREGON GREEN moiety of the fluorescently labeled BH3 peptide, a novel BH3/Bcl-xL binding assay using unlabeled BH3 peptide was designed. In this assay Bcl-xL was covalently attached to a surface-enhanced laser desorption/ionization (SELDI) chip, and binding of the unlabelled BH3 peptide to the immobilized protein was monitored by mass spectrometry. Specifically, purified recombinant GST-Bcl-2 and BCL-xL-His6 were coupled through their primary amines to SELDI chip surfaces derivatized with carbonyldiimidazole (Ciphergen). Bak BH3 peptide was then added (in a total volume of 1 μl) for 12 hours at 4° C. in a humidified chamber, to allow binding to each spot of the SELDI chip. The chip was then washed with alternating high and low pH-0.1M sodium acetate with 0.5M NaCl, followed by 0.01M HEPES; pH 7.3. The samples were embedded in α-cyanno-4-hydroxycinnamaic acid matrix and analyzed for mass by MALDI TOF. An average of 100 laser shots at a constant setting were collected over 20 spots in each sample.

[3] = biological target: T2, Bcl-xL/Bax heterodimerization in 293 cells (Homo sapiens, UniProt Q07817); assay: FRET between Bcl-xL-CFP and Bax-YFP in intact cells; type: cell-based; details: rank order; for order of relative effects on YFP fluorescence reduction: rough index of cell death
T2 construct: expressed in transfected cells; host or cells: 293 cells
Source text: The effect of the BH3Is on the disruption of the heterodimerization of Bcl-2 family proteins in vivo was next determined. Dimerization of Bcl-2 in immunoprecipitation experiments may represent post-lysis events induced by detergents (Hsu et al., J. Biol. Chem. 272:13829-34, 1997). Therefore, these studies focused on assaying the Bcl-xL dimerization status in intact cells. Recently, the interaction between Bax and Bcl-2 has been studied in intact living cells by fluorescent resonance energy transfer measurements between GFP fusion proteins (Mahajan et al., Nat. Biotechnol. 16:547-52, 1998). This approach was used to monitor the effects of BH3Is on Bcl-xL/Bax heterodimerization in intact cells.
293 cells were transfected with Bcl-xL-CFP and Bax-YFP expression vectors using Lipofectamine Plus (Gibco) or TransLT-1 (PanVera) and 24 hr later were treated with BH3Is. Cells were harvested in PBS supplemented with BH3Is, and fluorescence was determined using a C-60 fluorimeter (PTI) or a Wallac platereader. Fluorescence in the samples separately overexpressing Bax and Bcl-xL was added together and used to estimate the FRET value in the absence of dimerization. The extent of FRET between CFP and YFP was determined as a ratio of fluorescence at 527 nm vs. 475 nm after excitation at 433 nm.

[4] = tested on: tBid / Bcl-xL heterodimerization; assay: tBid pulldown with Bcl-xL-His6 beads; type: binding; details: for relative activity in tBid pulldown: comparison between compounds; for effect on tBid binding to Bcl-xL: 35S labeled in vitro translated tBid
Description: Next, it was determined whether BH3Is could disrupt the heterodimerization of Bcl-xL with pro-apoptotic proteins from the Bcl-2 family, such as truncated Bid (tBid). Truncation of Bid by caspase-8 activates Bid and dramatically increases its affinity towards anti-apoptotic Bcl-2 family members (Li et al., Cell 94:491-501, 1998). To perform this study, in vitro translation of tBid or U2AF^65 (control) was performed using TNT® Coupled Reticulocyte and Wheat Germ Lysate Systems (Promega) respectively. Bcl-xL, U2AF^35 (control) or corresponding amounts of original Ni-NTA agarose beads (blank) were pre-incubated with the BH3 inhibitors or peptide in 100 μl of PBS for 30 min at 25° C. Then 1 μl of ^35S-labeled tBID or U2AF^65 was added and incubation was continued for 2 hr at 4° C. The samples were subjected to SDS-PAGE, coomassie blue staining and autoradiography.

T1 sequence (Q07817 whole entry): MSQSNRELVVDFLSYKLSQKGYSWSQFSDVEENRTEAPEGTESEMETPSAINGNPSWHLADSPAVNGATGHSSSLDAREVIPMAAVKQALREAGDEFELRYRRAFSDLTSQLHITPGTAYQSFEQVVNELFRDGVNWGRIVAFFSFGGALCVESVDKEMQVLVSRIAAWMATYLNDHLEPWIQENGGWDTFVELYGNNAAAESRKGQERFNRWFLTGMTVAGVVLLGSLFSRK
T2 sequence (Q07817 whole entry, one chain of several): as the sequence (Q07817 whole entry) above

Structure (SMILES) | order of activities, Bad-GFP localization [1] | relative activity in SELDI assay [2] | order of changes in the FRET ratio [3] | order of relative effects on YFP fluorescence reduction [3] | relative activity in tBid pulldown [4] | mitochondrial targeting and heterodimerization of Bad-GFP [1] | effect on BH3 peptide binding to Bcl-xL-modified SELDI surface [2] | effect on tBid binding to Bcl-xL [4]
CC(C)C(C(=O)O)N1C(=O)/C(=C/c2ccccc2)SC1=S (stereo not shown) [BH3I-1″] | BH3I-2>BH3I-1>BH3I-1″ | lower potency than BH3I-1 | BH3I-2>BH3I-1>BH3I-1″ | BH3I-2>BH3I-I>BH3I-1″ | even lower |  |  | 
CC(C)C(C(=O)O)N1C(=O)C(=Cc2ccc(Br)cc2)SC1=S (stereo in doubt) [BH3I-1] | BH3I-2>BH3I-1>BH3I-1″ |  | BH3I-2>BH3I-1>BH3I-1″ | BH3I-2>BH3I-I>BH3I-1″ | lower activity than BH3I-2 | efficiently disrupted mitochondrial targeting and heterodimerization of Bad-GFP | reduction of BH3 binding | dose-dependent decrease in the tBid binding
O=C(Nc1cc(S(=O)(=O)c2ccc(Cl)cc2)ccc1Cl)c1cc(Cl)cc(Br)c1O [BH3I-2] | BH3I-2>BH3I-1>BH3I-1″ | higher activity than BH3I-1 | BH3I-2>BH3I-1>BH3I-1″ | BH3I-2>BH3I-I>BH3I-1″ |  | efficiently disrupted mitochondrial targeting and heterodimerization of Bad-GFP | reduction of BH3 binding | dose-dependent decrease in the tBid binding
